According to publication PMC10196118, “Evidence for broad cross-reactivity of the SARS-CoV-2 NSP12-directed CD4^+ T-cell response with pre-primed responses directed against common cold coronaviruses” (Frontiers in Immunology, 2023):

System: pre-cultured PBMCs (NSP12-specific T cells)
Assay: IFN-γ ELISpot with single 15-mer peptides after 11–13 days in vitro peptide-pool T-cell expansion
Type: cell-based, human
Settings: for peptide-specific response, donor HH-N12-18, post COVID-19 / peptide-specific response, donor HH-N12-34, post COVID-19 / peptide-specific response, donor HH-N12-35, post COVID-19 / peptide-specific response, donor HH-N12-36, post COVID-19 / peptide-specific response, donor HH-N12-37, post COVID-19 / peptide-specific T-cell response, donor HH-N12-18, post COVID-19 / peptide-specific T-cell response, donor HH-N12-34, post COVID-19 / peptide-specific T-cell response, donor HH-N12-35, post COVID-19 / peptide-specific T-cell response, donor HH-N12-36, post COVID-19 / peptide-specific T-cell response, donor HH-N12-37, post COVID-19: sample post COVID-19; for peptide-specific response, donor HH-N12-18, post COVID-19 / peptide-specific response, donor HH-N12-18, pre COVID-19 / peptide-specific response, donor HH-N12-34, post COVID-19 / peptide-specific response, donor HH-N12-34, pre COVID-19 / peptide-specific response, donor HH-N12-35, post COVID-19 / peptide-specific response, donor HH-N12-35, pre COVID-19 / peptide-specific response, donor HH-N12-36, post COVID-19 / peptide-specific response, donor HH-N12-36, pre COVID-19 / peptide-specific response, donor HH-N12-37, post COVID-19 / peptide-specific response, donor HH-N12-37, pre COVID-19: single NSP12 15-mer peptides; for peptide-specific response, donor HH-N12-18, pre COVID-19 / peptide-specific response, donor HH-N12-34, pre COVID-19 / peptide-specific response, donor HH-N12-35, pre COVID-19 / peptide-specific response, donor HH-N12-36, pre COVID-19 / peptide-specific response, donor HH-N12-37, pre COVID-19 / peptide-specific T-cell response, donor HH-N12-18, pre COVID-19 / peptide-specific T-cell response, donor HH-N12-34, pre COVID-19 / peptide-specific T-cell response, donor HH-N12-35, pre COVID-19 / peptide-specific T-cell response, donor HH-N12-36, pre COVID-19 / peptide-specific T-cell response, donor HH-N12-37, pre COVID-19: sample pre COVID-19; for peptide-specific T-cell response, donor HH-N12-18, post COVID-19 / peptide-specific T-cell response, donor HH-N12-18, pre COVID-19 / peptide-specific T-cell response, donor HH-N12-34, post COVID-19 / peptide-specific T-cell response, donor HH-N12-34, pre COVID-19 / peptide-specific T-cell response, donor HH-N12-35, post COVID-19 / peptide-specific T-cell response, donor HH-N12-35, pre COVID-19 / peptide-specific T-cell response, donor HH-N12-36, post COVID-19 / peptide-specific T-cell response, donor HH-N12-36, pre COVID-19 / peptide-specific T-cell response, donor HH-N12-37, post COVID-19 / peptide-specific T-cell response, donor HH-N12-37, pre COVID-19: single NSP12 15-mer peptide, 0 = no response

LTKPYIKWDLLKYDF [compound 53]
peptide-specific response, donor HH-N12-18, post COVID-19: 0.021 | peptide-specific response, donor HH-N12-18, pre COVID-19: 0.02 | peptide-specific response, donor HH-N12-34, post COVID-19: 0 | peptide-specific response, donor HH-N12-34, pre COVID-19: 0 | peptide-specific response, donor HH-N12-35, post COVID-19: 0 | peptide-specific response, donor HH-N12-35, pre COVID-19: 0 | peptide-specific response, donor HH-N12-36, post COVID-19: 0 | peptide-specific response, donor HH-N12-36, pre COVID-19: 0 | peptide-specific response, donor HH-N12-37, post COVID-19: 0 | peptide-specific response, donor HH-N12-37, pre COVID-19: 0

LVLARKHTTCCSLSH [compound 128]
peptide-specific response, donor HH-N12-18, post COVID-19: 0 | peptide-specific response, donor HH-N12-18, pre COVID-19: 0 | peptide-specific response, donor HH-N12-34, post COVID-19: 0 | peptide-specific response, donor HH-N12-34, pre COVID-19: 0 | peptide-specific response, donor HH-N12-35, post COVID-19: 0 | peptide-specific response, donor HH-N12-35, pre COVID-19: 0 | peptide-specific response, donor HH-N12-36, post COVID-19: 0 | peptide-specific response, donor HH-N12-36, pre COVID-19: 0 | peptide-specific response, donor HH-N12-37, post COVID-19: 0 | peptide-specific response, donor HH-N12-37, pre COVID-19: 0

LYRNRDVDTDFVNEF [compound 147]
peptide-specific response, donor HH-N12-18, post COVID-19: 0 | peptide-specific response, donor HH-N12-18, pre COVID-19: 0 | peptide-specific response, donor HH-N12-34, post COVID-19: 0 | peptide-specific response, donor HH-N12-34, pre COVID-19: 0 | peptide-specific response, donor HH-N12-35, post COVID-19: 0 | peptide-specific response, donor HH-N12-35, pre COVID-19: 0 | peptide-specific response, donor HH-N12-36, post COVID-19: 0 | peptide-specific response, donor HH-N12-36, pre COVID-19: 0 | peptide-specific response, donor HH-N12-37, post COVID-19: 0 | peptide-specific response, donor HH-N12-37, pre COVID-19: 0

MILSDDAVVCFNSTY [compound 152]
peptide-specific T-cell response, donor HH-N12-18, post COVID-19: 0 | peptide-specific T-cell response, donor HH-N12-18, pre COVID-19: 0 | peptide-specific T-cell response, donor HH-N12-34, post COVID-19: 0 | peptide-specific T-cell response, donor HH-N12-34, pre COVID-19: 0 | peptide-specific T-cell response, donor HH-N12-35, post COVID-19: 0 | peptide-specific T-cell response, donor HH-N12-35, pre COVID-19: 0 | peptide-specific T-cell response, donor HH-N12-36, post COVID-19: 0 | peptide-specific T-cell response, donor HH-N12-36, pre COVID-19: 0 | peptide-specific T-cell response, donor HH-N12-37, post COVID-19: 0 | peptide-specific T-cell response, donor HH-N12-37, pre COVID-19: 0

MLKTVYSDVENPHLM [compound 121]
peptide-specific response, donor HH-N12-18, post COVID-19: 0 | peptide-specific response, donor HH-N12-18, pre COVID-19: 0 | peptide-specific response, donor HH-N12-34, post COVID-19: 0 | peptide-specific response, donor HH-N12-34, pre COVID-19: 0 | peptide-specific response, donor HH-N12-35, post COVID-19: 0 | peptide-specific response, donor HH-N12-35, pre COVID-19: 0 | peptide-specific response, donor HH-N12-36, post COVID-19: 0.052 | peptide-specific response, donor HH-N12-36, pre COVID-19: 0 | peptide-specific response, donor HH-N12-37, post COVID-19: 0 | peptide-specific response, donor HH-N12-37, pre COVID-19: 0

MRNAGIVGVLTLDNQ [compound 40]
peptide-specific response, donor HH-N12-18, post COVID-19: 0 | peptide-specific response, donor HH-N12-18, pre COVID-19: 0 | peptide-specific response, donor HH-N12-34, post COVID-19: 0.032 | peptide-specific response, donor HH-N12-34, pre COVID-19: 0 | peptide-specific response, donor HH-N12-35, post COVID-19: 0 | peptide-specific response, donor HH-N12-35, pre COVID-19: 0 | peptide-specific response, donor HH-N12-36, post COVID-19: 0 | peptide-specific response, donor HH-N12-36, pre COVID-19: 0 | peptide-specific response, donor HH-N12-37, post COVID-19: 0 | peptide-specific response, donor HH-N12-37, pre COVID-19: 0

NFKSVLYYQNNVFMS [compound 157]
peptide-specific T-cell response, donor HH-N12-18, post COVID-19: 0.3 | peptide-specific T-cell response, donor HH-N12-18, pre COVID-19: 0 | peptide-specific T-cell response, donor HH-N12-34, post COVID-19: 0 | peptide-specific T-cell response, donor HH-N12-34, pre COVID-19: 0 | peptide-specific T-cell response, donor HH-N12-35, post COVID-19: 0 | peptide-specific T-cell response, donor HH-N12-35, pre COVID-19: 0 | peptide-specific T-cell response, donor HH-N12-36, post COVID-19: 0 | peptide-specific T-cell response, donor HH-N12-36, pre COVID-19: 0 | peptide-specific T-cell response, donor HH-N12-37, post COVID-19: 0 | peptide-specific T-cell response, donor HH-N12-37, pre COVID-19: 0

PNCVNCLDDRCILHC [compound 60]
peptide-specific response, donor HH-N12-18, post COVID-19: 0 | peptide-specific response, donor HH-N12-18, pre COVID-19: 0 | peptide-specific response, donor HH-N12-34, post COVID-19: 0 | peptide-specific response, donor HH-N12-34, pre COVID-19: 0 | peptide-specific response, donor HH-N12-35, post COVID-19: 0 | peptide-specific response, donor HH-N12-35, pre COVID-19: 0 | peptide-specific response, donor HH-N12-36, post COVID-19: 0.022 | peptide-specific response, donor HH-N12-36, pre COVID-19: 0 | peptide-specific response, donor HH-N12-37, post COVID-19: 0 | peptide-specific response, donor HH-N12-37, pre COVID-19: 0
